The supplement of paper PMC10307832

Legend:
Assay in all cases: relative viability (nuclei count vs DMSO), 5 days (fraction); higher = more cells survive
Veliparib + Navitoclax = compound: C[C@]1(c2nc3c(C(N)=O)cccc3[nH]2)CCCN1 [Veliparib] + CC1(C)CCC(c2ccc(Cl)cc2)=C(CN2CCN(c3ccc(C(=O)NS(=O)(=O)c4ccc(N[C@H](CCN5CCOCC5)CSc5ccccc5)c(S(=O)(=O)C(F)(F)F)c4)cc3)CC2)C1 [Navitoclax] (partner 0.5 µM)
Summary of the method: (§1)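 Each reported value is a median over duplicate plates. It expresses relative viability: treated-well nuclei count divided by vehicle-well nuclei count. Lung cancer cell lines in 1536-well plates were dosed by pin tool a day after seeding, alone with one drug or with a fixed anchor-drug dose plus five library-drug doses (not always all listed) in √10 steps, and nuclei were counted after 5 days.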

Veliparib + Decitabine = compound: C[C@]1(c2nc3c(C(N)=O)cccc3[nH]2)CCCN1 [Veliparib] + Nc1ncn([C@H]2C[C@H](O)[C@@H](CO)O2)c(=O)n1 [Decitabine] (partner 2 µM)
Summary of the method: as §1

[1] = compound: COC1=CC=C(C=C1)CN2C=CC3=C2C=C(C=C3)C(=O)NO + Nc1ncn([C@H]2C[C@H](O)[C@@H](CO)O2)c(=O)n1 [Decitabine] (partner 2 µM)
Summary of the method: as §1

[2] = compound: COC1=CC=C(C=C1)CN2C=CC3=C2C=C(C=C3)C(=O)NO + COc1cc2c(Oc3ccc(NC(=O)C4(C(=O)Nc5ccc(F)cc5)CC4)cc3F)ccnc2cc1OCCCN1CCOCC1 [Foretinib] (partner 0.25 µM)
Summary of the method: as §1

Cell Line | relative viability (Veliparib + Navitoclax; first compound 0.02 µM) | relative viability (Veliparib + Navitoclax; first compound 0.06325 µM) | relative viability (Veliparib + Navitoclax; first compound 0.2 µM) | relative viability (Veliparib + Navitoclax; first compound 0.6325 µM) | relative viability (Veliparib + Navitoclax; first compound 2 µM) | relative viability (Veliparib + Decitabine; first compound 0.02 µM) | relative viability (Veliparib + Decitabine; first compound 0.06325 µM) | relative viability (Veliparib + Decitabine; first compound 0.2 µM) | relative viability (Veliparib + Decitabine; first compound 0.6325 µM) | relative viability (Veliparib + Decitabine; first compound 2 µM) | relative viability ([1]; first compound 0.08 µM) | relative viability ([1]; first compound 0.253 µM) | relative viability ([1]; first compound 0.8 µM) | relative viability ([1]; first compound 2.53 µM) | relative viability ([1]; first compound 8 µM) | relative viability ([2]; first compound 0.08 µM) | relative viability ([2]; first compound 0.253 µM) | relative viability ([2]; first compound 0.8 µM) | relative viability ([2]; first compound 2.53 µM) | relative viability ([2]; first compound 8 µM)
HCC-78 | 0.892 | 0.77 | 0.881 | 0.646 | 0.648 | 0.637 | 0.589 | 0.603 | 0.517 | 0.491 | 0.768 | 0.643 | 0.74 | 0.702 | 0.521 | 0.529 | 0.629 | 0.594 | 0.585 | 0.6
HCC-366 | 1.09 | 1.01 | 0.968 | 0.942 | 1.1 | 0.332 | 0.225 | 0.195 | 0.189 | 0.182 | 0.231 | 0.365 | 0.351 | 0.337 | 0.264 | 0.433 | 0.994 | 0.89 | 0.992 | 0.923
HCC-827 | 1.03 | 0.937 | 0.971 | 0.944 | 1.02 | 0.298 | 0.303 | 0.292 | 0.241 | 0.3 | 0.292 | 0.271 | 0.356 | 0.287 | 0.308 | 0.834 | 1.13 | 1.09 | 1.05 | 0.996
HOP-62 | 1.05 | 1 | 1.06 | 0.937 | 1.03 | 0.221 | 0.198 | 0.164 | 0.197 | 0.251 | 0.173 | 0.217 | 0.216 | 0.27 | 0.244 | 0.74 | 1.14 | 1.08 | 1.01 | 1.1
LC-2-ad | – | 0.446 | 0.405 | 0.312 | 0.497 | 0.775 | 0.801 | 0.706 | 0.673 | 0.763 | 0.853 | 0.871 | 0.81 | 0.773 | 0.816 | 0.904 | 0.918 | 0.899 | 0.906 | 0.816
LCLC-97TM1 | 0.425 | 0.32 | 0.387 | – | 0.476 | 0.205 | 0.206 | 0.237 | 0.208 | 0.194 | – | 0.224 | 0.236 | 0.225 | 0.181 | 0.444 | 0.992 | 0.96 | 0.942 | 0.923
LK-2 | 0.713 | 0.876 | 1.24 | 0.831 | 0.823 | 0.259 | 0.278 | 0.273 | 0.283 | 0.225 | – | 0.303 | 0.295 | 0.296 | 0.224 | – | 1.66 | 1.4 | 0.949 | 1.03
LOU-NH91 | 0.539 | 0.643 | 0.672 | 0.689 | 0.703 | 0.847 | 0.785 | 0.792 | 0.782 | 0.837 | – | 0.828 | 0.831 | 0.851 | 0.824 | 0.899 | 0.941 | 0.915 | 0.908 | 0.861
